# Data: patent US9695155B2, “Herbicidal substituted pyrimidinyloxy benzene compounds” (E. I. DU PONT DE NEMOURS AND COMPANY, priority 2013, dated 2017)
# What was measured:
# wild mustard = assay: Test D postemergence; format: in vivo, Sinapis arvensis; conditions: Brassica, post-emergence, scale 0 to 100 (0 no effect, 100 complete control), read-out: Plant response rating, Mustard, Wild
# Method in brief: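 Visual ratings from 0 (no effect) to 100 (complete control) relative to untreated plants were taken 7–21 days after treatment. Chemicals in a surfactant-containing solvent mixture were applied preemergence to seeds in silt loam, or postemergence to plants 2–18 cm tall (1–4 leaves) grown in a peat-based potting medium.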
# ragweed = assay: Test E postemergence; format: in vivo, Ambrosia elatior
# Source text: (§1) Seeds of plant species selected from corn (Zea mays), soybean (Glycine max), velvetleaf (Abutilon theophrasti), lambsquarters (Chenopodium album), wild poinsettia (Euphorbia heterophylla), palmer pigweed (Amaranthus palmeri), waterhemp (common waterhemp, Amaranthus rudis), surinam grass (Brachiaria decumbens), large (Lg) crabgrass (Digitaria sanguinalis), Brazilian crabgrass (Digitaria horizontalis), fall panicum (Panicum dichotomiflorum), giant foxtail (Setaria faberii), green foxtail (Setaria viridis), goosegrass (Eleusine indica), johnsongrass (Sorghum halepense), ragweed (common ragweed, Ambrosia elatior), barnyardgrass (Echinochloa crus-galli), sandbur (southern sandbur, Cenchrus echinatus), arrowleaf sida (Sida rhombifolia), Italian ryegrass (Lolium multiflorum), dayflower (Virginia (VA) dayflower, Commelina virginica), field bindweed (Convolvulus arvensis), morningglory (Ipomoea coccinea), nightshade (eastern black nightshade, Solanum ptycanthum), kochia (Kochia scoparia), yellow nutsedge (Cyperus esculentus), cocklebur (common cocklebur, Xanthium strumarium), smartweed (ladysthumb smartweed, and hairy beggarticks (Bidens pilosa), were planted into a silt loam soil and treated preemergence with test chemicals formulated in a non-phytotoxic solvent mixture which included a surfactant.
# (§2) At the same time, plants from these crop and weed species and also horseweed (Canada horseweed, Conyza canadensis), waterhemp_RES1, (ALS & Triazine resistant common waterhemp, Amaranthus rudis), and waterhemp_RES2, (ALS & HPPD resistant common waterhemp, Amaranthus rudis) were planted in pots containing Redi-Earth® planting medium (Scotts Company, 14111 Scottslawn Road, Marysville, Ohio 43041) comprising spaghnum peat moss, vermiculite, wetting agent and starter nutrients were treated with postemergence applications of test chemicals formulated in the same manner. Plants ranged in height from 2 to 18 cm for postemergence treatments (1- to 4-leaf stage). Treated plants and controls were maintained in a greenhouse for 14 to 21 days, after which time all species were compared to controls and visually evaluated. Plant response ratings, summarized in Table E, are based on a scale of 0 to 100 where 0 is no effect and 100 is complete control. A dash (-) response means no test result.
# bromegrass, downy = assay: Test D postemergence; format: in vivo, Bromus tectorum; conditions: Bromus tectorum, post-emergence, Postemergence, scale 0 to 100 (0 no effect, 100 complete control), read-out: Plant response rating, Bromegrass, Downy
# Source text: Seeds of plant species selected from bluegrass (annual bluegrass, Poa annua), blackgrass (Alopecurus myosuroides), canarygrass (littleseed canarygrass, Phalaris minor), chickweed (common chickweed, Stellaria media), galium (catchweed bedstraw, Galium aparine), bromegrass, downy (downy bromegrass, Bromus tectorum), field poppy (Papaver rhoeas), field violet (Viola arvensis), green foxtail (Setaria viridis), deadnettle (henbit deadnettle, Lamium amplexicaule), Italian ryegrass (Lolium multiflorum), kochia (Kochia scoparia), lambsquarters (Chenopodium album), oilseed rape (Brassica napus), pigweed (Amaranthus retroflexus), chamomile (scentless chamomile, Matricaria inodora), Russian thistle (Salsola kali), speedwell (bird's-eye speedwell, Veronica persica), spring barley (Hordeum vulgare), spring wheat (Triticum aestivum), wild buckwheat (Polygonum convolvulus), wild mustard (Sinapis arvensis), wild oat (Avena fatua), wild radish (Raphanus raphanistrum), windgrass (Apera spica-venti), winter barley (Hordeum vulgare), and winter wheat (Triticum aestivum) were planted into a silt loam soil and treated preemergence with test chemicals formulated in a non-phytotoxic solvent mixture which included a surfactant.
# At the same time, these species were planted in pots containing Redi-Earth® planting medium (Scotts Company, 14111 Scottslawn Road, Marysville, Ohio 43041) comprising spaghnum peat moss, vermiculite, wetting agent and starter nutrients and treated with postemergence applications of the test chemicals formulated in the same manner. Plants ranged in height from 2 to 18 cm (1- to 4-leaf stage). Treated plants and controls were maintained in a controlled growth environment for 7 to 21 days after which time all species were compared to controls and visually evaluated. Plant response ratings, summarized in Table D, are based on a scale of 0 to 100 where 0 is no effect and 100 is complete control. A dash (-) response means no test result.
# horseweed = assay: Test E postemergence; format: in vivo, Conyza canadensis
# Source text: as §1, §2
# large (Lg) crabgrass = assay: Test F preemergence; format: in vivo, Digitaria sanguinalis; conditions: 21 days, scale 0 to 100
# Method in brief: (§3)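 Loam/sand mix; preemergence spray, non-phytotoxic solvent + surfactant; greenhouse 21 d; visual injury vs untreated, 0 (none)–100 (complete control).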
# surinam grass = assay: Test F preemergence; format: in vivo, Brachiaria decumbens; conditions: 21 days, scale 0 to 100
# Source text: (§4) Seeds of plant species selected from bermudagrass (Cynodon dactylon), surinam grass (Brachiaria decumbens), large (Lg) crabgrass (Digitaria sanguinalis), crabgrass, naked (naked crabgrass, Digitaria nuda), foxtail, green (green foxtail, Setaria viridis), johnsongrass (Sorghum halepense), kochia (Kochia scoparia), morningglory (pitted morningglory, Ipomoea lacunosa), nutsedge, purple (purple nutsedge, Cyperus rotundus), ragweed (common ragweed, Ambrosia elatior), mustard, black (black mustard, Brassica nigra), guineagrass (Panicum maximum), dallisgrass (Paspalum dilatatum), barnyardgrass (Echinochloa crus-galli), sandbur (southern sandbur, Cenchrus echinatus), sowthistle (common sowthistle, Sonchus oleraceous), Italian ryegrass (Lolium multiflorum), signalgrass (broadleaf signalgrass, Brachiaria platyphylla), dayflower (Virginia (VA) dayflower, Commelina virginica), bluegrass (annual bluegrass, Poa annua), quackgrass (Elytrigia repens), mallow (common mallow, Malva sylvestris), buckwheat, wild (wild buckwheat, Polygonum convolvulus), leafy spurge (Euphorbia esula), chickweed (common chickweed, Stellaria media), wild poinsettia (Euphorbia heterophylla), and pigweed (Amaranthus retroflexus) were planted into a blend of loam soil and sand and treated preemergence with test chemicals formulated in a non-phytotoxic solvent mixture which included a surfactant.
# (§5) Treated plants and controls were maintained in a greenhouse for 21 days, after which time all species were compared to controls and visually evaluated. Plant response ratings, summarized in Table F, are based on a scale of 0 to 100 where 0 is no effect and 100 is complete control. A dash (-) response means no test result.
# crabgrass, naked = assay: Test F preemergence; format: in vivo, Digitaria nuda; conditions: 21 days, scale 0 to 100
# Source text: as §4, §5
# guineagrass = assay: Test F preemergence; format: in vivo, Panicum maximum; conditions: 21 days, scale 0 to 100
# Method in brief: as §3
# [1] = Postemergence, 31 g ai/ha, scale 0 to 100
# [2] = Postemergence, 62 g ai/ha, scale 0 to 100
# [3] = Postemergence, 125 g ai/ha, scale 0 to 100
# [4] = postemergence, 16 g ai/ha, scale 0 to 100, 0 no effect, 100 complete control
smiles,measurement,setting,value
"N#Cc1cccc(Oc2ncc(Cl)cn2)c1-n1cc(Br)cn1 [Compound 52, 2-(4-bromo-1H-pyrazol-1-yl)-3-[(5-chloro-2-pyrimidinyl)oxy]benzonitrile]",pest or weed control at 31 g/ha,wild mustard; 31 g ai/ha,70%
same,pest or weed control at 62 g/ha,wild mustard; 62 g ai/ha,80%
same,pest or weed control at 125 g/ha,wild mustard; 125 g ai/ha,95%
same,pest or weed control at 250 g/ha,wild mustard; 250 g ai/ha,100%
same,"Plant response rating, Ragweed",ragweed; [1],50
same,"Plant response rating, Ragweed",ragweed; [2],55
same,"Plant response rating, Ragweed",ragweed; [3],60
same,"Plant response rating, Ragweed",ragweed; [4],40
same,pest or weed control at 31 g/ha,"bromegrass, downy; 31 g ai/ha",15%
same,pest or weed control at 62 g/ha,"bromegrass, downy; 62 g ai/ha",20%
same,pest or weed control at 125 g/ha,"bromegrass, downy; 125 g ai/ha",20%
same,pest or weed control at 250 g/ha,"bromegrass, downy; 250 g ai/ha",25%
"N#Cc1cccc(Oc2ncc(F)cn2)c1-n1cc(C(F)(F)F)cn1 [Compound 79, 3-[(5-fluoro-2-pyrimidinyl)oxy]-2-[4-(trifluoromethyl)-1H-pyrazol-1-yl]benzonitrile]","Plant response rating, Horseweed",horseweed; [1],0
same,"Plant response rating, Horseweed",horseweed; [2],20
same,"Plant response rating, Horseweed",horseweed; [3],30
same,"Plant response rating, Horseweed",horseweed; [4],0
same,"Plant response rating, Crabgrass, Large",large (Lg) crabgrass; 16 g ai/ha,98
same,"Plant response rating, Crabgrass, Large",large (Lg) crabgrass; 31 g ai/ha,100
same,"Plant response rating, Crabgrass, Large",large (Lg) crabgrass; 62 g ai/ha,100
same,"Plant response rating, Crabgrass, Large",large (Lg) crabgrass; 125 g ai/ha,100
same,"Plant response rating, Crabgrass, Large",large (Lg) crabgrass; 250 g ai/ha,100
same,"Plant response rating, Surinam Grass",surinam grass; 16 g ai/ha,75
same,"Plant response rating, Surinam Grass",surinam grass; 31 g ai/ha,90
same,"Plant response rating, Surinam Grass",surinam grass; 62 g ai/ha,95
same,"Plant response rating, Surinam Grass",surinam grass; 125 g ai/ha,100
same,"Plant response rating, Surinam Grass",surinam grass; 250 g ai/ha,100
same,"Plant response rating, Crabgrass, Naked","crabgrass, naked; 16 g ai/ha",100
same,"Plant response rating, Crabgrass, Naked","crabgrass, naked; 31 g ai/ha",100
same,"Plant response rating, Crabgrass, Naked","crabgrass, naked; 62 g ai/ha",100
same,"Plant response rating, Crabgrass, Naked","crabgrass, naked; 125 g ai/ha",100
same,"Plant response rating, Crabgrass, Naked","crabgrass, naked; 250 g ai/ha",100
same,"Plant response rating, Ragweed",ragweed; [1],40
same,"Plant response rating, Ragweed",ragweed; [2],50
same,"Plant response rating, Ragweed",ragweed; [3],60
same,"Plant response rating, Ragweed",ragweed; [4],30
same,"Plant response rating, Guineagrass",guineagrass; 16 g ai/ha,100
same,"Plant response rating, Guineagrass",guineagrass; 31 g ai/ha,100
same,"Plant response rating, Guineagrass",guineagrass; 62 g ai/ha,100
same,"Plant response rating, Guineagrass",guineagrass; 125 g ai/ha,100
same,"Plant response rating, Guineagrass",guineagrass; 250 g ai/ha,100
Clc1cnc(Oc2cccc(Cl)c2-n2cc(I)cn2)nc1 [Compound 181],"Plant response rating, Horseweed",horseweed; [1],0
same,"Plant response rating, Horseweed",horseweed; [2],5
same,"Plant response rating, Horseweed",horseweed; [3],5
same,"Plant response rating, Horseweed",horseweed; [4],0
same,"Plant response rating, Ragweed",ragweed; [1],25
same,"Plant response rating, Ragweed",ragweed; [2],30
same,"Plant response rating, Ragweed",ragweed; [3],50
same,"Plant response rating, Ragweed",ragweed; [4],20
